Measured values published in patent US20090170762A1, “Treatment of Diabetes Related Obesity” (UUTech Limited, priority 2005, published 2009).
Entries after “also recorded” stand apart in the source; their conditions may differ. Ends that are not written are not given here.

Tests used:
[1] = system: Swiss TO mice; assay: Daily (Pro3)GIP for 90 days in normal (TO) mice fed high fat, cafeteria, high carbohydrate or normal diets; assay type: in vivo, mouse; details: for Glycated Hemoglobin (%): 25 nmol/kg bw/day
Description: (§1) Young obese diabetic (ob/ob) mice derived from the colony maintained at Aston University, UK (Bailey, C. J. et al., 1982, Int. J. Obes. 6:11-21) were used at 5-7 weeks of age. Normal lean control mice from the same colony were used in comparative experiments (See Example 6, below). Animals were age-matched, divided into groups and housed individually in an air-conditioned room at 22±2° C. with a 12 hours light:12 hours dark cycle (08:00-20:00 hours). Drinking water and a standard rodent maintenance diet (Trouw Nutrition, Cheshire, UK) were freely available. In a separate experiment, Swiss Tylers Original (TO) mice purchased from Harlan Ltd. (Bicester, UK) were used at 5-7 weeks of age. Animals were housed as for ob/ob mice and given drinking water ad libitum. Normal TO mice were allowed free access to fed high fat diet (45% fat, 20% protein, 35% carbohydrate, 26.15 MJ/kg), high carbohydrate diet (10% fat, 20% protein, 70% carbohydrate, 18.80 MJ/kg) (Special Diets Service, Witham, Essex, UK), cafeteria diet (corresponding to approximately 33% fat, 19% protein, 48% carbohydrate, 16.39 MJ/kg) or normal rodent maintenance diet (10% fat, 30% protein, 60% carbohydrate; 14.2 MJ/kg, Trouw Nutrition, Cheshire, UK). The cafeteria diet comprised 6 daily rotations of 2 palatable food items per day (2 from: tuna, peanut butter, crisps, chocolate biscuits, madera cake, chocolate, luncheon meat, sausages, corned beef, cheese, marzipan). All animal experiments were carried out in accordance with the UK Animals (Scientific Procedures) Act 1986.
(§2) Food intake and body weight were recorded daily while plasma glucose and insulin concentrations were monitored at intervals of 3-6 days. Whole blood for the measurement of glycated hemoglobin was taken on day 60. In addition, plasma samples for measurement of cholesterol, circulating triglycerides, HDL-cholesterol (HDL-C) and LDL-cholesterol (LDL-C) were taken on day 60. […] Mice fasted for 18 hours were used to examine the metabolic response to 15 minutes feeding on day 60. In a separate series, pancreatic tissues were excised at the end of the 60-day treatment period and processed for immunohistochemistry or measurement of insulin following extraction with 5 ml/g of ice-cold acid ethanol (750 ml ethanol, 235 ml water, 15 ml concentrated HCl). Blood samples taken from the cut tip of the tail vein of conscious mice at the times indicated in the Figures were immediately centrifuged using a Beckman microcentrifuge (Beckman instruments, UK) for 30 seconds at 13,000×g. The resulting plasma was then aliquoted into fresh Eppendorf tubes and stored at −20° C. prior to glucose and insulin determinations. Normal control mice from the same genetic background were used for comparative purposes. […] Body weights were recorded daily and blood for determination of glycated hemoglobin was collected at end of study period.
(§3) Plasma glucose was assayed by an automated glucose oxidase procedure (Stevens, J. F., 1971, Clin. Chem. Acta 32:199-201) using a Beckman Glucose Analyzer II (Beckman Instruments, Galway, Ireland). Plasma and pancreatic insulin were assayed by a modified dextran-coated charcoal radioimmunoassay (Flatt, P. R., Bailey, C. J., 1981, Diabetologia 20:573-577). Plasma triglyceride and cholesterol levels were measured using a Hitachi Automatic Analyser 912 (Boehringer Mannheim, Germany). Glycated hemoglobin was determined using a commercially available kit purchased from Chirus Ltd. (Watford, UK).
Normal mice were fed the different diets indicated above ad libitum from 4-5 weeks of age. Treated groups of mice received intraperitoneal injection of ProGIP (25 nmoles/kg body weight) each day.

[2] = system: Swiss TO mice; assay: Daily (Pro3)GIP for 60 days in Swiss TO mice previously fed high fat diet for 160 days; assay type: in vivo, mouse; details: high fat diet 160 days before, 25 nmoles/kg/day i.p. 60 days
Description: Parameters were measured at 3-4 daily intervals during a 60 day treatment period, which was preceded by a 160 days of feeding high fat diet. Mice were initially recruited into the study at 6-8 weeks of age. Control animals received standard rodent maintenance diet, 12.99 kj/g, (Harlan, UK) ad libitum. The animals were maintained on the respective diet for the duration of the study. High fat diet comprised 45% fat, 20% protein and 35% carbohydrate (26.15 kj/g) and was available ad libitum. (Special Diet Services, Essex, UK).
The results are shown in FIGS. 15A-B, which are a set of line graphs. Normal mice were fed the high fat diet indicated above ad libitum from 6-8 weeks of age. Treated groups of mice received intraperitoneal injection of ProGIP (25 nmoles/kg body weight) each day for a further 60 days while receiving the same high fat diet.

[3] = target: DPP-IV (Homo sapiens, UniProt P27487); assay: Degradation of GIP and Glu3-substituted GIP analogs by DPP-IV (HPLC); assay type: in vitro ADME
DPP-IV, sequence (P27487 whole entry, species assumed): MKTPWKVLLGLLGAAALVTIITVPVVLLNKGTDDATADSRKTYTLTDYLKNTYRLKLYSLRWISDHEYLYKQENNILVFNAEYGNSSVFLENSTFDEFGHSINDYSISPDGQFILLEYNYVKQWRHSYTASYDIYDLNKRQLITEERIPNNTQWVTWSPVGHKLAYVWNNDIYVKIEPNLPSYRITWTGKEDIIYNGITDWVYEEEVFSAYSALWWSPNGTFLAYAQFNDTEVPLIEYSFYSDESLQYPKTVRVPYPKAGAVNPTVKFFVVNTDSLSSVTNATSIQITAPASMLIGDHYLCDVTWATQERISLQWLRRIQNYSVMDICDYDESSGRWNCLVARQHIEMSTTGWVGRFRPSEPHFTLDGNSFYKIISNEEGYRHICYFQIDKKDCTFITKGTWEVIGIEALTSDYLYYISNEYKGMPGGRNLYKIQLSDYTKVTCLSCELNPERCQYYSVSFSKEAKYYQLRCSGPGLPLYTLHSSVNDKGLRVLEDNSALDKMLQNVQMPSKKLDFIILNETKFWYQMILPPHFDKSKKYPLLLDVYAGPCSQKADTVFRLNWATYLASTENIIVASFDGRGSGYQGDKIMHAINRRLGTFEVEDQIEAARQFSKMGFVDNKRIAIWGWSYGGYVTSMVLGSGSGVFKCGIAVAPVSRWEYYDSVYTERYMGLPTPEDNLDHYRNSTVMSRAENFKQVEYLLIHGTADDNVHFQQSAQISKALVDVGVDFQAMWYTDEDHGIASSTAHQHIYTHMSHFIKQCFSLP

[4] = system: ob/ob mice; assay: Daily (Pro3)GIP for 60 days in young ob/ob mice; assay type: in vivo, mouse
Description: as §1, §2, §3
Results are expressed as mean±SEM. Data were compared using ANOVA, followed by a Student-Newman-Keuls post hoc test. Area under the curve (AUC) analyzes were calculated using the trapezoidal rule with baseline subtraction. P<0.05 was considered to be statistically significant.

[5] = system: normal mice; details: once daily 11 days (Irwin 2004); cited from earlier work
[6] = normal mice fed high fat or cafeteria diets, 90 days

YAPGTFISDYSIAMDKIHQQDFVNWLLAQKGKKNDWKHNITQ [(Pro^3)GIP]
Glycated Hemoglobin (%) ([1]; Cafeteria diet, 90 days): 4.0 ± 0.32 %
Glycated Hemoglobin (%) ([1]; High Carbohydrate diet, 90 days): 4.3 ± 0.12%
Glycated Hemoglobin (%) ([1]; High Fat diet, 90 days): 4.0 ± 0.21 %
Glycated Hemoglobin (%) ([1]; Normal diet, 90 days): 3.9 ± 0.14%
body weight and glycated hemoglobin (parameters measured) ([1]; high carbohydrate or normal diets): did not affect
body weight gain induced by excessive energy intake ([1]; high fat diet, lesser extent cafeteria diet): counters body weight gain
decrease in body weight [1, 6]: up to 20%
decrease in glycated hemoglobin [1, 6]: greater than 1%
body weight [2]: promotes body weight loss
energy intake [2]: not associated with significant decrease in energy intake
half-life at 2 μm ([3]; DPP-IV enzyme (5 mU) in buffer, pH 7.8, incubation with DPP-IV, unit not given (time points in hrs), read-out: Estimated Half-Life (converted)): > 8 h
Intact Peptide Remaining (%) 0 hrs. ([3]; incubation with DPP-IV (5 mU), 37°C, pH 7.8, 0 hrs): 100%
remaining at 2 h, 2 μm ([3]; isolated DPP-IV enzyme (5 mU), incubation with DPP-IV (5 mU), 37°C, pH 7.8, 2 hrs, read-out: Intact Peptide Remaining (%) 2 hrs.): 100%
remaining at 4 h, 2 μm ([3]; isolated DPP-IV enzyme (5 mU), incubation with DPP-IV (5 mU), 37°C, pH 7.8, 4 hrs, read-out: Intact Peptide Remaining (%) 4 hrs.): 100%
remaining at 8 h, 2 μm ([3]; isolated DPP-IV enzyme (5 mU), incubation with DPP-IV (5 mU), 37°C, pH 7.8, 8 hrs, read-out: Intact Peptide Remaining (%) 8 hrs.): 100%
resistance to DPP-IV degradation ([3]; words, up to 8 hours incubation): completely resistant
body weight gain ([4]; 5-7 weeks old ob/ob mice, standard diet, 60 days): progressive decrease in body weight gain
plasma insulin levels after 15 minute feeding ([4]; 18 h fasted ob/ob mice, 60 days, vs saline): not significantly different
plasma glucose responses to 15 minute feeding ([4]; 18 h fasted ob/ob mice, 60 days, 15, 30, 60 and 105 min): significantly lowered
decrease in body weight ([4]; ob/ob mice, 25 nmol/kg/day i.p., 60 days, vs saline, did not reach significance): ~17%
effect on food intake ([4]; ob/ob mice, 25 nmol/kg/day, 60 days, vs saline): no effect; also recorded: without changing food intake
cholesterol levels ([4]; ob/ob mice, 60 days, vs saline): unaltered
circulating triglyceride concentrations ([4]; ob/ob mice, 60 days, vs saline): significantly (P<0.05) reduced
enhanced insulin sensitivity ([4]; ob/ob mice, 60 days, vs saline): 1.5 fold
lowering of overall plasma glucose response to feeding ([4]; ob/ob mice, 60 days, vs saline): 1.7 fold
lowering of overall plasma glucose response to intraperitoneal glucose load ([4]; ob/ob mice, 60 days, vs saline): 1.9 fold
pancreatic insulin content ([4]; ob/ob mice, 60 days, vs saline): significantly (P<0.01) decreased
pancreatic weight ([4]; ob/ob mice, 60 days, vs saline): no effect
reduced pancreatic insulin content ([4]; ob/ob mice, 60 days, vs saline): 1.5 fold
levels of LDL-C ([4]; ob/ob mice, 60 days, vs saline, LDL-C calculated by Friedewald equation): significantly reduced
plasma glucose concentrations following intraperitoneal glucose ([4]; ob/ob mice, 60 days, 0, 15, 30 and 60 min after glucose 18 mmol/kg): significantly reduced
plasma insulin concentrations following intraperitoneal glucose ([4]; ob/ob mice, 60 days, 15 min after glucose 18 mmol/kg): significantly (P<0.05) reduced
hypoglycemic action of insulin (insulin sensitivity) ([4]; ob/ob mice, 60 days, insulin 50 U/kg i.p.): significantly (P<0.05) augmented
overall glycaemic excursion and insulinotropic response to glucose together with native GIP ([4]; ob/ob mice, 60 days, native GIP 25 nmoles/kg): significant decrease
glycated hemoglobin ([4]; ob/ob mice, after 60 days treatment): 4.1±0.1%
non-fasting plasma glucose ([4]; ob/ob mice, day 14 to day 60, vs saline): significantly reduced
non-fasting plasma insulin ([4]; ob/ob mice, day 44, vs saline): significantly lowered
glucose tolerance and insulin sensitivity [5]: reversible impairment of glucose tolerance associated with decreased insulin sensitivity
